In PubChem BioAssay AID624167 (Sanford-Burnham Center for Chemical Genomics, 2012):
Active and inactive are the calls of the source.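 How the source made its calls: active means mean IC50 for reducing PEG3 promoter reporter signal at or below a set limit, with IC50 above the limit in both counter screens; inactive means the rest, including counter screen hits.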

Legend:
PEG-3 [1] = molecular target: PEG-3 (UniProt Q6IN02); test: inhibition of PEG-3 promoter-driven reporter – cell-based, HeLa, luciferase, CREF/GAPDH counter-screen panel, dose response (AID 624167); conditions: HeLa PEG-Prom luciferase reporter, overnight, CREF/GAPDH counter-screens, mean of runs
PEG-3 (UniProt Q6IN02), sequence (Q6IN02 whole entry, looked up): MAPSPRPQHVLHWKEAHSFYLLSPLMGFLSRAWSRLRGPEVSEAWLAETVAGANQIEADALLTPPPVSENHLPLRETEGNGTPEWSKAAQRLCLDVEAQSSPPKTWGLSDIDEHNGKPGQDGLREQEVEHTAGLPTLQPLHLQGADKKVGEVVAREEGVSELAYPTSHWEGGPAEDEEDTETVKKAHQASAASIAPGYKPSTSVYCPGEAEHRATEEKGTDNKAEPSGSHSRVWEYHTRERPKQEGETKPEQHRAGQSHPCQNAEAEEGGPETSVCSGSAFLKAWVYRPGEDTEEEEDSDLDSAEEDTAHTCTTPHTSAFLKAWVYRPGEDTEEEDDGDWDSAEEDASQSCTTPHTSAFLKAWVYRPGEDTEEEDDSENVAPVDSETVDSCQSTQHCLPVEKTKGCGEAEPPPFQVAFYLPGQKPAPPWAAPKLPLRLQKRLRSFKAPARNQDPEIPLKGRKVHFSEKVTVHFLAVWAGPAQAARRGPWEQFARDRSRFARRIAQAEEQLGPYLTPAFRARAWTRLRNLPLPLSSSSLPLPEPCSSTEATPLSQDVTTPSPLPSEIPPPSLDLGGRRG

PEG-3 [2] = test: as above; conditions: HeLa PEG-Prom luciferase reporter, overnight, CREF/GAPDH counter-screens
[3] = run 1, dose range 1, individual replicate IC50 per panel
[4] = run 2, dose range 1, individual replicate IC50 per panel

Question: Which IC50 (PEG-3 [1]) does the source give for `COc1ccc(NC(=O)N(C)[C@H]2C[C@H]3c4[nH]c5ccc(-c6cccc(C)c6)cc5c4CCN3C[C@H]2[C@H](C)O)cc1` here?
Answer: inactive

Question: What about the IC50 (PEG-3 [2]; [3]) of the same compound?
Answer: 23.6 µM

Question: What about the IC50 (PEG-3 [2]; [4]) of the same compound?
Answer: 22.7 µM

Question: Which results are given for `Cc1ccc(S(=O)(=O)c2nc(-c3ccccc3Cl)oc2N(C)C2CCN(C)CC2)cc1`?
Answer: IC50 (PEG-3 [1]): inactive; IC50 (PEG-3 [2]; [3]): 32.7 µM; IC50 (PEG-3 [2]; [4]): 20.6 µM

Question: `O=C1NC2C(=CC(O)C(O)C2O)c2cc3c(c(O)c21)OCO3` (stereo unspecified) was tested. Which IC50 (PEG-3 [1]) did it give?
Answer: 0.293 µM

Question: And the IC50 (PEG-3 [2]; [3])?
Answer: 0.293 µM

Question: What about the IC50 (PEG-3 [2]; [4]) of the same compound?
Answer: < 0.2 µM

Question: What does the source list for `COc1ccc(-c2cc(C(=O)N(C)Cc3cccc(OC)c3OC)c3ccccc3n2)cc1OC`?
Answer: IC50 (PEG-3 [1]): inactive; IC50 (PEG-3 [2]; [3]): 12.7 µM; IC50 (PEG-3 [2]; [4]): 71.2 µM

Question: For `CCOC(=O)CN(C(=O)CSc1nnc2c(n1)[nH]c1ccc(F)cc12)c1ccccc1`, which IC50 (PEG-3 [1]) is on record?
Answer: inactive

Question: What about the IC50 (PEG-3 [2]; [3]) of the same compound?
Answer: 25 µM

Question: What about the IC50 (PEG-3 [2]; [4]) of the same compound?
Answer: 21.7 µM

Question: `Cc1cc(C(=O)COC(=O)C2=COCCO2)c(C)n1-c1ccccc1` was tested. Which IC50 (PEG-3 [1]) did it give?
Answer: 11.8 µM

Question: What about the IC50 (PEG-3 [2]; [3]) of the same compound?
Answer: 11.1 µM

Question: What about the IC50 (PEG-3 [2]; [4]) of the same compound?
Answer: 12.5 µM

Question: Which IC50 (PEG-3 [1]) does the source give for `Cc1ccc(C(=O)NCCc2cccs2)cc1` here?
Answer: 12 µM

Question: What about the IC50 (PEG-3 [2]; [3]) of the same compound?
Answer: 3.98 µM

Question: What about the IC50 (PEG-3 [2]; [4]) of the same compound?
Answer: 20 µM

Question: Which IC50 (PEG-3 [1]) does the source give for `COc1ccccc1NC(=S)NC1CCCCCCCCCCC1` here?
Answer: inactive

Question: And the IC50 (PEG-3 [2]; [3])?
Answer: 31.2 µM

Question: What about the IC50 (PEG-3 [2]; [4]) of the same compound?
Answer: 42.3 µM

Question: What does the source list for `CC(=O)OCCNc1cc(SCc2ccco2)c2nonc2c1[N+](=O)[O-]`?
Answer: IC50 (PEG-3 [1]): inactive; IC50 (PEG-3 [2]; [3]): 26.8 µM; IC50 (PEG-3 [2]; [4]): 20.4 µM

Question: `CN(C)c1ccc(/C=N/NC(=O)c2nnn(-c3nonc3N)c2COc2ccc(F)cc2)cc1` was tested. Which IC50 (PEG-3 [1]) did it give?
Answer: > 100 µM (inactive)

Question: What about the IC50 (PEG-3 [2]; [3]) of the same compound?
Answer: > 100 µM

Question: What about the IC50 (PEG-3 [2]; [4]) of the same compound?
Answer: > 100 µM

Question: `CCN(CC)CCCCNc1ncc2cc(-c3cc(OC)cc(OC)c3)c(NC(=O)NC(C)(C)C)nc2n1` was tested. Which IC50 (PEG-3 [1]) did it give?
Answer: inactive

Question: What about the IC50 (PEG-3 [2]; [3]) of the same compound?
Answer: 21 µM

Question: And the IC50 (PEG-3 [2]; [4])?
Answer: 20.9 µM

Question: For `CCN1CCN(CCNC(=O)c2ccc(/C=C3\Sc4ccccc4N(Cc4ccccc4F)C3=O)cc2)CC1`, which IC50 (PEG-3 [1]) is on record?
Answer: 14.9 µM

Question: And the IC50 (PEG-3 [2]; [3])?
Answer: 20.2 µM

Question: And the IC50 (PEG-3 [2]; [4])?
Answer: 9.63 µM

Question: Which results are given for `O=C(Nc1ccccc1)c1nc[nH]c1C(=O)NCCCCNC(=O)c1[nH]cnc1C(=O)Nc1ccccc1`?
Answer: IC50 (PEG-3 [1]): 11.3 µM; IC50 (PEG-3 [2]; [3]): 17.7 µM; IC50 (PEG-3 [2]; [4]): 4.92 µM

Question: How did the IC50 (PEG-3 [1]) turn out when `c1ccc(CCNc2nc(-c3ccncc3)nc3ccccc23)cc1` was run?
Answer: 13.1 µM

Question: What about the IC50 (PEG-3 [2]; [3]) of the same compound?
Answer: 17.7 µM

Question: What about the IC50 (PEG-3 [2]; [4]) of the same compound?
Answer: 8.58 µM

Question: For `O=C1c2ccccc2C(=O)C12OC2c1ccc(Cl)cc1Cl` (stereo unspecified), which IC50 (PEG-3 [1]) is on record?
Answer: inactive

Question: And the IC50 (PEG-3 [2]; [3])?
Answer: 28.4 µM

Question: And the IC50 (PEG-3 [2]; [4])?
Answer: 14.6 µM

Question: What does the source list for `COc1cc(-c2cc(C(=O)Nc3cc(S(=O)(=O)N4CCOCC4)ccc3C)c3ccccc3n2)cc(OC)c1OC`?
Answer: IC50 (PEG-3 [1]): 11.8 µM; IC50 (PEG-3 [2]; [3]): 11.1 µM; IC50 (PEG-3 [2]; [4]): 12.5 µM

Question: With `CCN(CC)CCN1CCN(c2cncc(-c3ccc4ccccc4c3)n2)CC1` as the compound, how does the IC50 (PEG-3 [1]) read?
Answer: inactive

Question: And the IC50 (PEG-3 [2]; [3])?
Answer: 34.4 µM

Question: And the IC50 (PEG-3 [2]; [4])?
Answer: 11.9 µM

Question: How did the IC50 (PEG-3 [1]) turn out when `CCCc1ccc(C(=O)O/N=C(\N)c2ccccn2)cc1` was run?
Answer: inactive

Question: And the IC50 (PEG-3 [2]; [3])?
Answer: 36.5 µM

Question: And the IC50 (PEG-3 [2]; [4])?
Answer: 16.6 µM

Question: For `CC1=CC(O)C(O)C2(C)C1CC1OC(=O)C(O)C3C(C)C(O)C4(O)OCC13C42` (stereo unspecified), which IC50 (PEG-3 [1]) is on record?
Answer: inactive

Question: What about the IC50 (PEG-3 [2]; [3]) of the same compound?
Answer: 44.9 µM

Question: And the IC50 (PEG-3 [2]; [4])?
Answer: 84.3 µM

Question: Which IC50 (PEG-3 [1]) does the source give for `CCn1cc(C(=O)NCCC(C)C)c(=O)c2cc(F)c(N3CCN(C(=O)c4ccco4)CC3)cc21` here?
Answer: inactive

Question: What about the IC50 (PEG-3 [2]; [3]) of the same compound?
Answer: 37.8 µM

Question: And the IC50 (PEG-3 [2]; [4])?
Answer: > 100 µM

Question: Which results are given for `COc1ccccc1CN(C)C(=O)c1cc(-c2cc(OC)c(OC)c(OC)c2)nc2ccccc12`?
Answer: IC50 (PEG-3 [1]): inactive; IC50 (PEG-3 [2]; [3]): 19.2 µM; IC50 (PEG-3 [2]; [4]): 40 µM

Question: Which results are given for `CCOC(=O)c1ccc(NC(=O)C2CCCN(S(=O)(=O)c3ccc(F)cc3)C2)cc1` (stereo unspecified)?
Answer: IC50 (PEG-3 [1]): inactive; IC50 (PEG-3 [2]; [3]): 20.9 µM; IC50 (PEG-3 [2]; [4]): 43.1 µM

Question: What does the source list for `CN(C)CCNC(=O)c1sc2nc(-c3ccccc3)cc(C(F)(F)F)c2c1N`?
Answer: IC50 (PEG-3 [1]): inactive; IC50 (PEG-3 [2]; [3]): 20.5 µM; IC50 (PEG-3 [2]; [4]): 19.8 µM

Question: What does the source list for `O=C(c1ccoc1)N1CCN(c2cc(-c3ccccc3)nc3cc(-c4ccccc4)nn23)CC1`?
Answer: IC50 (PEG-3 [1]): 11.5 µM; IC50 (PEG-3 [2]; [3]): 13.3 µM; IC50 (PEG-3 [2]; [4]): 9.7 µM

Question: How did the IC50 (PEG-3 [1]) turn out when `O=C1CSC(=S)N1Cc1cccnc1` was run?
Answer: 17.9 µM

Question: What about the IC50 (PEG-3 [2]; [3]) of the same compound?
Answer: 28.3 µM

Question: What about the IC50 (PEG-3 [2]; [4]) of the same compound?
Answer: 7.51 µM

Question: With `Cc1nc2c(OCc3ccc(OC(F)F)cc3)cccn2c1N(C)C(=O)CCC1CCCC1` as the compound, how does the IC50 (PEG-3 [1]) read?
Answer: inactive

Question: And the IC50 (PEG-3 [2]; [3])?
Answer: 28.9 µM

Question: And the IC50 (PEG-3 [2]; [4])?
Answer: 23.5 µM

Question: What does the source list for `COCCn1c(C)cc(C(=O)COC(=O)c2ccccc2Br)c1C`?
Answer: IC50 (PEG-3 [1]): inactive; IC50 (PEG-3 [2]; [3]): 32.1 µM; IC50 (PEG-3 [2]; [4]): 53.3 µM

Question: Which results are given for `CCCCCc1ccc(OCCCC[n+]2cccc(C)c2)c(CCCCC)c1`?
Answer: IC50 (PEG-3 [1]): 13.6 µM; IC50 (PEG-3 [2]; [3]): 16.4 µM; IC50 (PEG-3 [2]; [4]): 10.7 µM

Question: How did the IC50 (PEG-3 [1]) turn out when `CCN1CCCC1CN(Cc1cc2ccc(C)cc2[nH]c1=O)C(=S)Nc1ccc(OC)cc1` (stereo unspecified) was run?
Answer: inactive

Question: What about the IC50 (PEG-3 [2]; [3]) of the same compound?
Answer: 42 µM

Question: What about the IC50 (PEG-3 [2]; [4]) of the same compound?
Answer: 37.5 µM

Question: For `CC(=O)c1ccc(Nc2cc(C)nc3ccc(C)cc23)cc1`, which IC50 (PEG-3 [1]) is on record?
Answer: 13.3 µM

Question: What about the IC50 (PEG-3 [2]; [3]) of the same compound?
Answer: 21.8 µM

Question: And the IC50 (PEG-3 [2]; [4])?
Answer: 4.69 µM

Question: `CCN1C(=O)C(=Cc2cccc(OC)c2Oc2ccc([N+](=O)[O-])cc2[N+](=O)[O-])SC1=S` was tested. Which IC50 (PEG-3 [1]) did it give?
Answer: > 100 µM (inactive)

Question: And the IC50 (PEG-3 [2]; [3])?
Answer: > 100 µM

Question: What about the IC50 (PEG-3 [2]; [4]) of the same compound?
Answer: > 100 µM

Question: What does the source list for `Oc1c(Cl)cc(Cl)c2cccnc12`?
Answer: IC50 (PEG-3 [1]): 12.3 µM; IC50 (PEG-3 [2]; [3]): 17.9 µM; IC50 (PEG-3 [2]; [4]): 6.75 µM
